# In patent publication US10500166B2, “Methods for the treatment of erectile dysfunction using fispemifene” (QUATRX PHARMACEUTICALS, priority 2007, dated 2019):
# System: calculated free testosterone
# Assay: Example 3 study in hypogonadal men: calculated serum free testosterone (ITT)
# Type: in vivo, human
# Description: FIG. 7 depicts a graph of the data of the study from Example 3 showing the calculated serum free testosterone level (ng/dL) over time for each of the treatment groups. The bars from left to right for each of the BL (baseline), 2 week, 4 week, and 6 week timepoints (the 6 week timepoint occurred 2 weeks after the discontinuation of study drug at week 4) correspond to the placebo, 100 mg, 200 mg, and 300 mg/day doses, respectively;
# A randomized, double-blind, placebo controlled, parallel-group study of once-daily doses of fispemifene (100, 200, and 300 mg/day) given for 4 weeks was conducted in a population of hypogonadal men. Subjects were required to meet all of the following inclusion criteria at screening and prior to randomization to be eligible for the study:
# There were 77 subjects total. The number of subjects randomized to the 100 mg fispemifene, 200 mg fispemifene, 300 mg fispemifene, and placebo arms were 21, 21, 19, and 16, respectively.
# Subjects were randomly assigned to one of four treatment groups in a 1:1:1:1 ratio: • Treatment A (100 mg): fispemifene 100 mg+placebo+placebo; • Treatment B (200 mg): fispemifene 100 mg+fispemifene 100 mg+placebo; • Treatment C (300 mg): fispemifene 100 mg+fispemifene 100 mg+fispemifene 100 mg; and • Treatment D (Placebo): placebo+placebo+placebo.
# Subjects took one dose (three capsules) of study medication once a day at home for 4 weeks. Capsules were to be taken in the morning immediately after breakfast, with the exception of the morning of the Week 4 visit. Capsules were not to be taken on the morning of the Week 4 visit because trough plasma levels of fispemifene were determined by a blood sample taken at this visit. Each subject was randomly assigned to treatment with one of the 3 different dose regimens of fispemifene or placebo vehicle. Each subject received a 4 week supply of study drug.
# Blood samples were taken from the subjects within 1 week prior to dosing with study drug to establish baseline values; after 2 and 4 weeks of randomization; and 2 weeks after the last dose of study drug. Serum was prepared from those samples and used to determine the mean % change from baseline in total testosterone, free testosterone, SHBG (sex hormone-binding globulin), DHT (dihydrotestosterone), E2 (estradiol), LH (luteinizing hormone), FSH (follicle stimulating hormone), and inhibin B.
# 1. Percent change from baseline in free testosterone and calculated free testosterone at Weeks 2, 4, and 6;
# [1] = 100 mg/day, Week 6 (2 weeks after discontinuation)
# [2] = 100 mg/day, to Week 6 (2 weeks after discontinuation)
# [3] = 200 mg/day, Week 6 (2 weeks after discontinuation)
# [4] = 200 mg/day, to Week 6 (2 weeks after discontinuation)
# [5] = 300 mg/day, Week 6 (2 weeks after discontinuation)
# [6] = 300 mg/day, to Week 6 (2 weeks after discontinuation)
smiles,measurement,setting,value
"OCCOCCOc1ccc(/C(=C(/CCCl)c2ccccc2)c2ccccc2)cc1 [Fispemifene, (Z)-2-{2-[4-(4-Chloro-1,2-diphenylbut-1-enyl)phenoxy]ethoxy}ethanol]","Calculated Free Testosterone, Max","100 mg/day, Baseline (Visit 2)",7.54 ng/dL
same,"Calculated Free Testosterone, Mean ± SD","100 mg/day, Baseline (Visit 2)",4.81 ± 1.368 ng/dL
same,"Calculated Free Testosterone, Median","100 mg/day, Baseline (Visit 2)",4.95 ng/dL
same,"Calculated Free Testosterone, Min","100 mg/day, Baseline (Visit 2)",2.19 ng/dL
same,"Calculated Free Testosterone, Max","100 mg/day, Week 2",10.27 ng/dL
same,"Calculated Free Testosterone, Mean ± SD","100 mg/day, Week 2",6.64 ± 1.732 ng/dL
same,"Calculated Free Testosterone, Median","100 mg/day, Week 2",6.46 ng/dL
same,"Calculated Free Testosterone, Min","100 mg/day, Week 2",4.32 ng/dL
same,"Calculated Free Testosterone, Max","100 mg/day, Week 4",9.13 ng/dL
same,"Calculated Free Testosterone, Mean ± SD","100 mg/day, Week 4",6.59 ± 1.396 ng/dL
same,"Calculated Free Testosterone, Median","100 mg/day, Week 4",6.63 ng/dL
same,"Calculated Free Testosterone, Min","100 mg/day, Week 4",4.15 ng/dL
same,"Calculated Free Testosterone, Max",[1],7.05 ng/dL
same,"Calculated Free Testosterone, Mean ± SD",[1],5.15 ± 1.057 ng/dL
same,"Calculated Free Testosterone, Median",[1],5.10 ng/dL
same,"Calculated Free Testosterone, Min",[1],2.57 ng/dL
same,"Calculated Free Testosterone, % Change from Baseline, Max","100 mg/day, to Week 2",100%
same,"Calculated Free Testosterone, % Change from Baseline, Median","100 mg/day, to Week 2",36%
same,"Calculated Free Testosterone, % Change from Baseline, Min","100 mg/day, to Week 2",8%
same,"Calculated Free Testosterone, % Change from Baseline, Max","100 mg/day, to Week 4",157%
same,"Calculated Free Testosterone, % Change from Baseline, Median","100 mg/day, to Week 4",36%
same,"Calculated Free Testosterone, % Change from Baseline, Max",[2],115%
same,"Calculated Free Testosterone, % Change from Baseline, Median",[2],8%
same,"Calculated Free Testosterone, Max","200 mg/day, Baseline (Visit 2)",7.29 ng/dL
same,"Calculated Free Testosterone, Mean ± SD","200 mg/day, Baseline (Visit 2)",4.80 ± 1.143 ng/dL
same,"Calculated Free Testosterone, Median","200 mg/day, Baseline (Visit 2)",4.70 ng/dL
same,"Calculated Free Testosterone, Min","200 mg/day, Baseline (Visit 2)",2.66 ng/dL
same,"Calculated Free Testosterone, Max","200 mg/day, Week 2",8.98 ng/dL
same,"Calculated Free Testosterone, Mean ± SD","200 mg/day, Week 2",6.37 ± 1.386 ng/dL
same,"Calculated Free Testosterone, Median","200 mg/day, Week 2",6.21 ng/dL
same,"Calculated Free Testosterone, Min","200 mg/day, Week 2",4.11 ng/dL
same,"Calculated Free Testosterone, Max","200 mg/day, Week 4",9.83 ng/dL
same,"Calculated Free Testosterone, Mean ± SD","200 mg/day, Week 4",6.64 ± 1.658 ng/dL
same,"Calculated Free Testosterone, Median","200 mg/day, Week 4",6.39 ng/dL
same,"Calculated Free Testosterone, Min","200 mg/day, Week 4",4.05 ng/dL
same,"Calculated Free Testosterone, Max",[3],7.81 ng/dL
same,"Calculated Free Testosterone, Mean ± SD",[3],5.153 ± 1.328 ng/dL
same,"Calculated Free Testosterone, Median",[3],4.88 ng/dL
same,"Calculated Free Testosterone, Min",[3],3.60 ng/dL
same,"Calculated Free Testosterone, % Change from Baseline, Max","200 mg/day, to Week 2",124%
same,"Calculated Free Testosterone, % Change from Baseline, Median","200 mg/day, to Week 2",28%
same,"Calculated Free Testosterone, % Change from Baseline, Min","200 mg/day, to Week 2",1%
same,"Calculated Free Testosterone, % Change from Baseline, Max","200 mg/day, to Week 4",112%
same,"Calculated Free Testosterone, % Change from Baseline, Median","200 mg/day, to Week 4",40%
same,"Calculated Free Testosterone, % Change from Baseline, Max",[4],75%
same,"Calculated Free Testosterone, % Change from Baseline, Median",[4],6%
same,"Calculated Free Testosterone, Max","300 mg/day, Baseline (Visit 2)",7.02 ng/dL
same,"Calculated Free Testosterone, Mean ± SD","300 mg/day, Baseline (Visit 2)",4.66 ± 1.509 ng/dL
same,"Calculated Free Testosterone, Median","300 mg/day, Baseline (Visit 2)",4.94 ng/dL
same,"Calculated Free Testosterone, Min","300 mg/day, Baseline (Visit 2)",0.23 ng/dL
same,"Calculated Free Testosterone, Max","300 mg/day, Week 2",9.79 ng/dL
same,"Calculated Free Testosterone, Mean ± SD","300 mg/day, Week 2",6.43 ± 2.152 ng/dL
same,"Calculated Free Testosterone, Median","300 mg/day, Week 2",7.25 ng/dL
same,"Calculated Free Testosterone, Min","300 mg/day, Week 2",0.14 ng/dL
same,"Calculated Free Testosterone, Max","300 mg/day, Week 4",10.31 ng/dL
same,"Calculated Free Testosterone, Mean ± SD","300 mg/day, Week 4",7.33 ± 2.589 ng/dL
same,"Calculated Free Testosterone, Median","300 mg/day, Week 4",8.40 ng/dL
same,"Calculated Free Testosterone, Min","300 mg/day, Week 4",0.10 ng/dL
same,"Calculated Free Testosterone, Max",[5],8.02 ng/dL
same,"Calculated Free Testosterone, Mean ± SD",[5],5.29 ± 1.791 ng/dL
same,"Calculated Free Testosterone, Median",[5],5.44 ng/dL
same,"Calculated Free Testosterone, Min",[5],0.22 ng/dL
same,"Calculated Free Testosterone, % Change from Baseline, Max","300 mg/day, to Week 2",83%
same,"Calculated Free Testosterone, % Change from Baseline, Median","300 mg/day, to Week 2",40%
same,"Calculated Free Testosterone, % Change from Baseline, Max","300 mg/day, to Week 4",133%
same,"Calculated Free Testosterone, % Change from Baseline, Median","300 mg/day, to Week 4",59%
same,"Calculated Free Testosterone, % Change from Baseline, Max",[6],65%
same,"Calculated Free Testosterone, % Change from Baseline, Median",[6],10%
